The test system of this experiment is arrowleaf sida (Sida rhombifolia). The experiment in a line: Test E preemergence. Format: in vivo. To be noted: scale 0 to 100. The text has this: Seeds of plant species selected from corn (Zea mays), soybean (Glycine max), velvetleaf (Abutilon theophrasti), cocklebur (common cocklebur, Xanthium strumarium), lambsquarters (Chenopodium album), wild poinsettia (Euphorbia heterophylla), palmer pigweed (Amaranthus palmeri), waterhemp (common waterhemp, Amaranthus rudis), surinam grass (Brachiaria decumbens), large (Lg) crabgrass (Digitaria sanguinalis), Brazilian crabgrass (Digitaria horizontalis), fall panicum (Panicum dichotomiflorum), giant foxtail (Setaria faberii), green foxtail (Setaria viridis), goosegrass (Eleusine indica), johnsongrass (Sorghum halepense), ragweed (common ragweed, Ambrosia elatior), barnyardgrass (Echinochloa crus-galli), sandbur (southern sandbur, Cenchrus echinatus), arrowleaf sida (Sida rhombifolia), Italian ryegrass (Lolium multiflorum), dayflower (Virginia (VA) dayflower, Commelina virginica), field bindweed (Convolvulus arvensis), morningglory (Ipomoea coccinea), nightshade (eastern black nightshade, Solanum ptycanthum), kochia (Kochia scoparia), yellow nutsedge (Cyperus esculentus), horseweed (Conyza canadensis), and hairy beggarticks (Bidens pilosa), were planted into a silt loam soil and treated preemergence with test chemicals formulated in a non-phytotoxic solvent mixture which included a surfactant.
At the same time, plants from these crop and weed species and also waterhemp_RES1, (ALS & Triazine resistant common waterhemp, Amaranthus rudis), and waterhemp_RES2, (ALS & HPPD resistant common waterhemp, Amaranthus rudis) were planted in pots containing Redi-Earth® planting medium (Scotts Company, 14111 Scottslawn Road, Marysville, Ohio 43041) comprising spaghnum peat moss, vermiculite, wetting agent and starter nutrients were treated with postemergence applications of test chemicals formulated in the same manner. Plants ranged in height from 2 to 18 cm for postemergence treatments (1- to 4-leaf stage). Treated plants and controls were maintained in a greenhouse for 14 to 21 days, after which time all species were compared to controls and visually evaluated. Plant response ratings, summarized in Table E, are based on a scale of 0 to 100 where 0 is no effect and 100 is complete control. A dash (-) response means no test result.

Each structure is given as a SMILES string.

The source of these data is patent publication US20170190671A1, “BIS(ARYL)CATECHOL DERIVATIVES AS HERBICIDES” (E I DU PONT DE NEMOURS AND COMPANY, priority 2014, published 2017).

For `Clc1cnc(Oc2cccc(Br)c2Oc2ncc(Cl)cn2)nc1` [Compound 19, 2,2′-[[3-bromo-1,2-phenylene]bis(oxy)]bis[5-chloropyrimidine]], the “Plant response rating, Arrowleaf Sida” value (16 g ai/ha) worked out at 65; the “Plant response rating, Arrowleaf Sida” value (31 g ai/ha) amounted to 40; the “Plant response rating, Arrowleaf Sida” value (62 g ai/ha) amounted to 100; the “Plant response rating, Arrowleaf Sida” value (125 g ai/ha) was 100.
